Laboratory results: US4743616A, “Novel biologically active compound having anti-prolyl endopeptidase activity” (Suntory Limited, priority 1984, dated 1988)

How the values were obtained:
prolyl endopeptidase = experiment: Measurement of anti-prolyl endopeptidase activity; format: biochemical; settings: substrate Z-glycyl-proline-β-naphthylamide, phosphate buffer pH 7.0, absorbance at 410 nm
Protocol: The method of Yoshimoto and Tsuru (T. Yoshimoto and D. Tsuru, Agr. Biol. Chem. 42, 2417, 1978) was used to measure the anti-prolyl endopeptidase activities of several compounds of the present invention. A mixture of 0.0025M Z-glycyl-proline-β-naphthylamide (0.25 ml), 0.1M phosphate buffer (pH, 7.0; 0.99 ml) and a solution of a particular anti-prolyl endopeptidase compound (0.01 ml) was incubated in a test tube at 37° C. for 3 minutes. Thereafter, 0.1 ml of a solution of prolyl endopeptidase (0.2 U/ml) was added and the mixture was heated at 35° C. for 10 minutes. After the reaction, 2.0 ml of Triton X-100 in 1M acetate buffer (pH, 4.0 ) was added to the reaction mixture until the final concentration of the surfactant was 10%. The mixture was left at room temperature for 15 minutes and the absorance (a) at 410 nm was measured.
A sample for blind test was prepared by using the buffer instead of the anti-prolyl endopeptidase compound and its absorbance (b) was also measured. The percent inhibition of prolyl endopeptidase was calculated by the formula: ((b-a)/b)×100, and the amount of a specific compound to achieve 50% inhibition (IC50) was determined.

[1] = Acute toxicity test in mice; settings: mouse, in vivo, ip; single i.p. administration in DMSO/physiological saline, five mice per group, observed at 24 and 48 hours; read-out: Average dose (mg/kg) at which the group remained sound and showed no sign of intoxication
Protocol: The compounds of the present invention were checked for their acute toxicity in CDF-1 strain male mice (body weight: 27.2-30.1 g) purchased from Awazu Laboratory Animals Co., Ltd.
Test samples were prepared by dissolving the respective compounds in DMSO, and mixing with an equal amount of physiological saline. A portion (0.1 ml) of the so conditioned test sample was administered intraperitoneally to each of the mice used. Each of the tested groups consisted of five mice. At 24 and 48 hours of the administration, the mice were observed.

[2] = tested on: experimental amnesia caused in rats by scopolamine; experiment: Preventive effect against experimental amnesia caused in rats by scopolamine (intraperitoneal administration); format: in vivo, Wister male rats; settings: for No. of amnesic rats/No. of rats tested / Percentage amnesia: scopolamine 3 mg/kg i.p., assessed 24 and 48 hours after scopolamine
Protocol: (§1) Several of the anti-prolyl endopeptidase compounds of the present invention were checked for their ability to prevent the inhibition of long-term memory fixation by scopolamine. Solutions of physiological saline that contained selected compounds of the present inventions in varying amounts (20 mg, 2 mg, 0.2 mg and 0.02 mg/kg) were administered intraperitoneally once a day to Wister male rats (100-120 g). One hour after the administration, electric shocks were applied to the rats so that they would acquire passive avoidance learning. Immediately thereafter, scopolamine was administered intraperitoneally to each rat in an amount of 3 mg per kg of body weight.
(§2) The result of the test was assessed both 24 hours and 48 hours after the administration of scopolamine. The number of amnesic rats and that of sound rats were counted for each of the control group (rats which were not administered the test compounds but administered intraperitoneally only scopolamine and physiological saline) and the treated group (rats which were administered both the test compound and scopolamine).

[3] = tested on: experimental amnesia caused in rats by scopolamine; experiment: Preventive effect against experimental amnesia caused in rats by scopolamine (oral administration); format: in vivo; settings: for No. of amnesic rats/No. of rats tested / Percentage amnesia: scopolamine 3 mg/kg i.p.
Protocol: as §1, §2
Varying amounts (1, 5, 25 and 100 mg/kg) of the compound were administered orally to each of the rats and tested for its anti-amnesic effects by the same procedures as used in Example 9.

## O=CC1CCCN1C(=O)CCc1ccccc1 (stereo not shown) [Compound No. 3, N-(3-phenylpropionyl)-prolinal]
Prolyl endopeptidase
  IC50 (μg/test tube): 0.018 μg/test tube
[1]
  NOAEL at 48 h: 543 mg/kg
[2]; 0.02 mg/kg i.p.
  No. of amnesic rats/No. of rats tested: 7/15
  Percentage amnesia: 47%
[2]; 0.2 mg/kg i.p.
  No. of amnesic rats/No. of rats tested: 4/15
  Percentage amnesia: 27%
[2]; 2 mg/kg i.p.
  No. of amnesic rats/No. of rats tested: 4/15
  Percentage amnesia: 27%

## COC(=O)[C@@H]1CCCN1C(=O)CCc1ccccc1 [Compound No. 4, N-(3-phenylpropionyl)-proline methyl ester]
Prolyl endopeptidase
  IC50 (μg/test tube): 60 μg/test tube
[1]
  NOAEL at 48 h: 542 mg/kg
[2]; 2 mg/kg i.p.
  No. of amnesic rats/No. of rats tested: 8/10
  Percentage amnesia: 80%
[2]; 20 mg/kg i.p.
  No. of amnesic rats/No. of rats tested: 4/10
  Percentage amnesia: 40%

## COC(=O)[C@@H]1CCCN1C(=O)Cc1ccccc1 [Compound No. 2, N-phenylacetyl-proline methyl ester]
Prolyl endopeptidase
  IC50 (μg/test tube): 200 μg/test tube
[1]
  NOAEL at 48 h: 535 mg/kg
[2]; 20 mg/kg i.p.
  No. of amnesic rats/No. of rats tested: 7/10
  Percentage amnesia: 70%

## O=CC1CCCN1C(=O)CCCCCc1ccccc1 (stereo not shown) [Sample prepared in Example 7, N-(6-phenyl-n-caproyl)-prolinal]
Prolyl endopeptidase
  IC50 (μg/test tube): 0.35 μg/test tube

## O=CC1CCCN1C(=O)Cc1ccccc1 (stereo not shown) [Compound No. 1]
Prolyl endopeptidase
  IC50 (μg/test tube): 0.8 μg/test tube
[1]
  NOAEL at 48 h: 535 mg/kg
[2]; 0.2 mg/kg i.p.
  No. of amnesic rats/No. of rats tested: 7/10
  Percentage amnesia: 70%
[2]; 2 mg/kg i.p.
  No. of amnesic rats/No. of rats tested: 3/10
  Percentage amnesia: 30%

## COC(=O)C1CCCN1C(=O)CCCc1ccccc1 (stereo not shown) [Compound No. 6, N-(4-phenyl-n-butyryl)-proline methyl ester]
Prolyl endopeptidase
  IC50 (μg/test tube): 25 μg/test tube
[1]
  NOAEL at 48 h: 536 mg/kg
[2]; 0.2 mg/kg i.p.
  No. of amnesic rats/No. of rats tested: 5/10
  Percentage amnesia: 50%
[2]; 2 mg/kg i.p.
  No. of amnesic rats/No. of rats tested: 3/10
  Percentage amnesia: 30%

## O=CC1CCCN1C(=O)CCCc1ccccc1 (stereo not shown) [Compound No. 5]
Prolyl endopeptidase
  IC50 (μg/test tube): 0.006 μg/test tube
[3]; 1 mg/kg p.o.
  No. of amnesic rats/No. of rats tested: 4/10
  Percentage amnesia: 40%
[3]; 5 mg/kg p.o.
  No. of amnesic rats/No. of rats tested: 1/10
  Percentage amnesia: 10%
[3]; 25 mg/kg p.o.
  No. of amnesic rats/No. of rats tested: 3/10
  Percentage amnesia: 30%
[3]; 100 mg/kg p.o.
  No. of amnesic rats/No. of rats tested: 8/10
  Percentage amnesia: 80%
[3]; of 1, 5, 25 and 100 mg/kg administered orally to rats
  oral amount giving the strongest anti-amnesic action: 5 mg/kg
[1]
  NOAEL at 48 h: 534 mg/kg
[2]; 0.02 mg/kg i.p.
  No. of amnesic rats/No. of rats tested: 4/15
  Percentage amnesia: 27%
[2]; 0.2 mg/kg i.p.
  No. of amnesic rats/No. of rats tested: 2/15
  Percentage amnesia: 13%
[2]; 2 mg/kg i.p.
  No. of amnesic rats/No. of rats tested: 3/15
  Percentage amnesia: 20%
[2]; i.p. administration, Example 9
  effect in preventing amnesia (in words): particularly effective in preventing amnesia
